Laboratory results reported in ChEMBL document CHEMBL3352105, “Design, synthesis and SAR analysis of antitumour styryl lactones related to (+)-crassalactones B and C” (Eur J Med Chem, 2014).
pIC50: −log10 of the molar value.

Columns and labels:
[1] = tested on: K562; assay: Cytotoxicity against human K562 cells after 72 hrs by MTT assay; type: functional, cell-based; conditions: K562, 72 h
[2] = Cytotoxicity against human HL60 cells after 72 hrs by MTT assay; type: functional, cell-based; conditions: HL-60, 72 h
[3] = tested on: Jurkat; assay: Cytotoxicity against human Jurkat cells after 72 hrs by MTT assay; type: functional, cell-based
[4] = tested on: Raji; assay: Cytotoxicity against human Raji cells after 72 hrs by MTT assay; type: functional, cell-based
[5] = tested on: MCF7; assay: Cytotoxicity against human MCF7 cells after 72 hrs by MTT assay; type: functional, cell-based; conditions: MCF7, 72 h
[6] = tested on: MDA-MB-231; assay: Cytotoxicity against human MDA-MB-231 cells after 72 hrs by MTT assay; type: functional, cell-based; conditions: MDA-MB-231, 72 h
[7] = tested on: HeLa; assay: Cytotoxicity against human HeLa cells after 72 hrs by MTT assay; type: functional, cell-based
[8] = tested on: MRC5; assay: Cytotoxicity against human MRC5 cells after 72 hrs by MTT assay; type: cell-based; conditions: MRC5, 72 h
[9] = tested on: HL-60; assay: Potency index, ratio of IC50 for doxorubicin to IC50 for test compound against human HL60 cells after 72 hrs by MTT assay; type: functional
[10] = tested on: Raji; assay: Potency index, ratio of IC50 for doxorubicin to IC50 for test compound against human Raji cells after 72 hrs by MTT assay; type: functional

Row | SMILES | pIC50 [1] | pIC50 [2] | pIC50 [3] | pIC50 [4] | pIC50 [5] | pIC50 [6] | pIC50 [7] | pIC50 [8] | Ratio IC50 [9] | Ratio IC50 [10]
1 | COc1ccc(/C=C/C(=O)O[C@@H]2[C@H]3OC(=O)C[C@H]3O[C@@H]2[C@H](O)c2ccccc2)cc1 | 5.38 | 4.30 | 4.87 | 5.24 | 4.96 | < 4.00 | 4.73 | < 4.00 |  | 
2 | O=C(/C=C/c1ccc([N+](=O)[O-])cc1)O[C@@H]1[C@H]2OC(=O)C[C@H]2O[C@@H]1[C@H](O)c1ccccc1 | 4.83 | 4.32 | 4.35 | 5.08 | < 4.00 | 5.27 | 4.67 | < 4.00 |  | 
3 | O=C(/C=C/c1ccc(F)cc1)O[C@@H]1[C@H]2OC(=O)C[C@H]2O[C@@H]1[C@H](O)c1ccccc1 | 4.99 | 4.94 | 4.76 | 4.96 | 4.83 | 4.59 | 4.52 | < 4.00 |  | 
4 | COc1ccc(/C=C/C(=O)O[C@H](c2ccccc2)[C@H]2O[C@@H]3CC(=O)O[C@@H]3[C@H]2O)cc1 | 5.49 | 4.38 | 4.37 | 5.36 | 4.91 | < 4.00 | 4.60 | < 4.00 |  | 
5 | O=C(/C=C/c1ccc([N+](=O)[O-])cc1)O[C@H](c1ccccc1)[C@H]1O[C@@H]2CC(=O)O[C@@H]2[C@H]1O | 5.65 | 4.84 | 4.98 | 4.79 | 5.28 | 4.48 | 4.45 | < 4.00 |  | 
6 | O=C(/C=C/c1ccc(F)cc1)O[C@H](c1ccccc1)[C@H]1O[C@@H]2CC(=O)O[C@@H]2[C@H]1O | 5.34 | 5.02 | 4.74 | 4.84 | 4.73 | 4.53 | 4.62 | < 4.00 |  | 
7 | O=C(/C=C/c1ccccc1)O[C@@H]1[C@H]2OC(=O)C[C@H]2O[C@@H]1[C@@H](O)c1ccccc1 | 5.48 | 7.70 | 6.06 | 4.84 | 6.66 | 5.06 | 5.61 | < 4.00 | 46 | 
8 | COc1ccc(/C=C/C(=O)O[C@@H]2[C@H]3OC(=O)C[C@H]3O[C@@H]2[C@@H](O)c2ccccc2)cc1 | 5.58 | 6.96 | 5.95 | 5.63 | 4.69 | 5.14 | 5.49 | < 4.00 |  | 
9 | O=C(/C=C/c1ccc([N+](=O)[O-])cc1)O[C@@H]1[C@H]2OC(=O)C[C@H]2O[C@@H]1[C@@H](O)c1ccccc1 | 5.95 | 6.44 | 5.45 | 5.99 | 4.25 | 5.58 | 5.78 | < 4.00 |  | 3
10 | O=C(/C=C/c1ccc(F)cc1)O[C@@H]1[C@H]2OC(=O)C[C@H]2O[C@@H]1[C@@H](O)c1ccccc1 | 6.07 | 5.68 | 6.16 | 5.76 | 4.07 | 5.88 | 5.39 | < 4.00 |  | 
11 | O=C(/C=C/c1ccccc1)O[C@@H](c1ccccc1)[C@H]1O[C@@H]2CC(=O)O[C@@H]2[C@H]1O | 5.70 | 5.87 | 5.99 | 5.88 | 5.02 | 5.47 | 6.16 | < 4.00 |  | 
12 | COc1ccc(/C=C/C(=O)O[C@@H](c2ccccc2)[C@H]2O[C@@H]3CC(=O)O[C@@H]3[C@H]2O)cc1 | 4.94 | 5.06 | 4.73 | 5.07 | 5.02 | 4.54 | 4.96 | < 4.00 |  | 
13 | O=C(/C=C/c1ccc([N+](=O)[O-])cc1)O[C@@H](c1ccccc1)[C@H]1O[C@@H]2CC(=O)O[C@@H]2[C@H]1O | 4.85 | 4.98 | 4.61 | 5.36 | 5.38 | 4.19 | 5.40 | < 4.00 |  | 
14 | O=C(/C=C/c1ccc(F)cc1)O[C@@H](c1ccccc1)[C@H]1O[C@@H]2CC(=O)O[C@@H]2[C@H]1O | 4.80 | 4.96 | 4.71 | 4.90 | 5.27 | 4.50 | 5.36 | < 4.00 |  | 
15 | O=C(/C=C/c1ccccc1)O[C@@H]1[C@H]2OC(=O)C[C@H]2O[C@@H]1[C@H](OC(=O)/C=C/c1ccccc1)c1ccccc1 | 4.67 | 5.48 | 5.58 | 4.96 | < 4.00 | < 4.00 | 4.91 | 4.31 |  | 
16 | O=C(/C=C/c1ccccc1)O[C@@H]1[C@H]2OC(=O)C[C@H]2O[C@@H]1[C@@H](OC(=O)/C=C/c1ccccc1)c1ccccc1 | 5.67 | 6.82 | 6.51 | 4.99 | 5.79 | 5.17 | 5.84 | < 4.00 |  | 
17 | O=C(/C=C/c1ccccc1)OC1C2OC(=O)CC2O[C@@H]1Cc1ccccc1 (single isomer, unassigned) | 5.33 | 5.66 | 6.54 | 6.06 | 4.23 | 5.36 | 5.90 | < 4.00 |  | 
18 | COc1ccc(/C=C/C(=O)OC2C3OC(=O)CC3O[C@@H]2Cc2ccccc2)cc1 (single isomer, unassigned) | 5.99 | 6.57 | 6.08 | 5.45 | 4.21 | 5.36 | 6.03 | < 4.00 |  | 
19 | O=C(/C=C/c1ccc([N+](=O)[O-])cc1)OC1C2OC(=O)CC2O[C@@H]1Cc1ccccc1 (single isomer, unassigned) | 6.01 | 6.85 | 5.43 | 5.57 | 4.64 | 5.27 | 6.06 | < 4.00 |  | 
20 | O=C(/C=C/c1ccc(F)cc1)OC1C2OC(=O)CC2O[C@@H]1Cc1ccccc1 (single isomer, unassigned) | 6.60 | 5.99 | 5.58 | 5.82 | 4.54 | 5.09 | 5.99 | < 4.00 |  | 
21 | O=C(/C=C/c1ccccc1)O[C@@H]1[C@H]([C@@H](O)c2ccccc2)O[C@H]2CC(=O)O[C@@H]12 [(+)-CRASSALACTONE B] | 6.11 | 5.60 | 6.92 | 4.84 | 6.07 | 5.27 | 6.01 | < 4.00 |  | 
22 | O=C(/C=C/c1ccccc1)O[C@H](c1ccccc1)[C@H]1O[C@@H]2CC(=O)O[C@@H]2[C@H]1O [(+)-CRASSALACTONE C] |  | < 4.00 |  |  | 5.13 | 4.06 |  | < 4.00 |  | 
23 | COc1cccc2c1C(=O)c1c(O)c3c(c(O)c1C2=O)C[C@@](O)(C(=O)CO)C[C@@H]3O[C@H]1C[C@H](N)[C@H](O)[C@H](C)O1 [DOXORUBICIN] |  | 6.04 |  |  |  |  | 7.19 |  |  | 
